# Publication PMC12301034, “Design and Synthesis of Boronic Chalcones with Dual Anticancer and Anti-Inflammatory Activity” (Molecules, 2025)
# Experiments:
# IL-1β = assay: Anti-inflammatory assay, IL-1β in LPS-stimulated THP-1 cells (CBA); type: cell-based, human; details: 2 and 4 µg/mL, 24 h
# Method: For this assay, THP-1 (BCRJ cód. 0234) cells were cultured in Roswell Park Memorial Institute (RPMI-1640, Sigma-Aldrich; Saint Louis, MO, USA) media supplemented with 2 mM L-glutamine, 1 mM sodium pyruvate, 1.50 g/L of sodium bicarbonate, and 10% fetal bovine serum. For obtaining Macrophage-like cells, 250,000 cells per well were plated in a 24-well cell culture plate. A total of 20 ng/mL of Forbol 12-miristato-13-acetato (PMA) was added to each well, and the cells were incubated for 48 h at 37 °C with 5% CO2. After the 48 h, the wells were washed with 1X PBS, and fresh RPMI-1640 media was added. The cells were then incubated for 24 h at 37 °C and 5% CO2. For the cell’s stimulations, after the 24 h, the well was washed with PBS and fresh RPMI1640 media without fetal bovine serum added. For the positive controls of the assay, 3 wells were stimulated with LPS (1 ng/µL) diluted in the same volume and media used for the drugs stimulation. Two different concentrations (2 and 4 µg/mL) were evaluated for each molecule, which were determined to be non-cytotoxic through a cell viability assay. After a 24 h period, the supernatant was removed and used in the cytokine quantification assay. A kit for inflammatory cytokines, BD® Cytometric Bead Array CBA Human Inflammatory, was employed for this assay, containing the following human cytokines: IL-8, IL-1β, IL-6, and TNF. […]
# Kinetic solubility = type: physicochemical
# Method: To determine kinetic solubility, stock solutions of test compounds and controls [Amiodarone hydrochloride (Sigma-Aldrich, St. Louis, MO, USA), Diclofenac (Oakwood Chemical, Estill, SC, USA), Chloramphenicol (Sigma-Aldrich, St. Louis, MO, USA), and Itraconazole (Sigma-Aldrich, St. Louis, MO, USA)] were prepared at 10 mM in DMSO. A volume of 5 µL from each stock solution was transferred to designated wells of a 96-well incubation plate in duplicate. Subsequently, 195 µL of phosphate-buffered saline (PBS) at pH 7.4 or 2.0 was added to achieve a final compound concentration of 250 µM (final DMSO concentration ≤ 2.5%). The plate was sealed and subjected to shaking at 200 rpm for 24 ± 1 h at room temperature (25 °C). Following the incubation period, the plate was centrifuged at 3000 rpm for 15 min at 25 °C to remove precipitates. A 100 µL aliquot of the supernatant from each well was transferred to a corresponding well in a new 96-well plate. The samples were subsequently analyzed by an LCMS-8045 system (Shimazu, Kyoto, Japan). To quantify the solubilized fraction, a calibration curve was prepared for each test compound and control. From the 10 mM stock solution, an intermediate standard solution (0.5 mM) was prepared in a 1:1 acetonitrile:water mixture. Serial dilutions of this intermediate solution were performed to obtain final concentrations of 50, 40, 20, 2, and 1 µM. […]
# [1] = Partition coefficient (Log P), OECD 117 HPLC method
# HCT116 p53^+/+ cells = assay: SRB cytotoxicity assay on HCT116 p53+/+ cells; type: cell-based, human; details: Homo sapiens, HCT-116, 48 h of treatment
# Excerpt: The SCC-25 (ATCC® CRL-1628™), Detroit-562 (ATCC® CCL-138™), and THP-1 (ATCC® TIB-202™) cells were purchased from Rio de Janeiro Cell Bank (Duque de Caxias, Brazil), and NOK-si was kindly provided by Prof. Carlos Rossa from the School of Dentistry—UNESP. All the cells were cultivated according to standard conditions. Human colorectal adenocarcinoma HCT116 cell lines (ATCC® CCL-247™) expressing p53 and its p53-null isogenic derivative (HCT116 p53^−/−) were provided by B. Vogelstein (The Johns Hopkins Kimmel Cancer Center, Baltimore, MD, USA).
# HCT p53^+/+ and HCT p53^−/− cell lines were seeded in 96-well plates, with a concentration of 5000 cells/well, and allowed to adhere overnight. Afterwards, they were treated with serial dilutions of the compounds for an additional 48 h (compounds were prepared at 30 mM, in DMSO, and tested with a starting concentration of 50μM and 15 μM). Cells passed then through a series of essential steps (fixation with 10% trichloroacetic acid, for 1 h at 4 °C; staining with 0.4% sulforhodamine B (SRB); wash with 1% acetic acid; and solubilization with 10 mM Tris-Base); subsequently, absorbance was measured at 510 nm in a microplate reader (Biotek Instruments Inc., Synergy, MX, USA). IC50 values were determined using GraphPad Prism software, Version 7.0 (La Jolla, CA, USA).
compound,measurement,setting,value
"COc1cccc(C(=O)/C=C/c2cccc(B(O)O)c2)c1 [Compound 5, (E)-(3-(3-(3-methoxyphenyl)-3-oxoprop-1-en-1-yl)phenyl)boronic acid]",reduction of IL-1β levels,IL-1β,comparable efficacy in reducing cytokine levels relative to LPS-stimulated cells
same,solubility class,Kinetic solubility; kinetic solubility pH 7.4,moderate-to-high solubility
same,solubility at 24 h,"Kinetic solubility; phosphate-buffered saline, aqueous buffer, kinetic from dmso stock, PBS pH 7.4, 24 h, 25 °C, read-out: Kinect Solubility (KS) pH = 7.4",> 39.6 µg/mL
same,chromatographic logP,[1],2.92
same,IC50,HCT116 p53^+/+ cells,2500 ± 170 nM
